Counter-ions that a name gives are not always drawn.

Series [1] deals with Staphylococcus aureus 209P JC-1. As to the kind of experiment: antimicrobial activity compared with ceftazidime. It is filed as cell-based. The settings on record: relative to ceftazidime.
In series [2] the test system is Citrobacter freundii GN346. Kind of series: antimicrobial activity against β-lactamase-producing bacteria compared with ceftazidime. Type of series: cell-based. The settings on record: relative to ceftazidime.
For series [3], the system named is Staphylococcus epidermidis Kawamura. As to the kind of experiment: antimicrobial activity compared with ceftazidime. Type of series: cell-based. The settings on record: relative to ceftazidime.
Series [4] relates to clinical isolates of MRSA. Kind of series: antibacterial activity (90 % inhibitory concentration) against clinical isolates. Type of series: cell-based, methicillin resistant Staphylococcus aureus (MRSA). The settings on record: relative to ceftazidime.
The next series has as its system mice. As to the kind of experiment: acute toxicity by intravenous administration. It is filed as in vivo. The settings on record: dose of 1 g/kg, five mice, within five days after administration. An excerpt:
Moreover, the desired compounds [I] or pharmaceutically acceptable salts thereof have high absorbability in the living tissue, and the treatment effects thereof last for a long time so that the compounds [I] of the present invention show an excellent defense effect in infectious diseases caused by various microorganisms including Staphylococcus aureus and Pseudomonas aeruginosa. In addition, the desired compounds [I] of the present invention and pharmaceutically acceptable salts thereof have low toxicity and show high safety as medicaments.

For the molecule `Nc1nc(/C(=N/OC(C(=O)O)c2ccc(O)c3[nH]c(=O)ccc23)C(=O)N[C@@H]2C(=O)N3C(C(=O)[O-])=C(C[n+]4cccc5ccccc54)CS[C@H]23)cs1` (stereo partly drawn) [Example 3, 7β-{(Z)-2-(2-aminothiazol-4-yl)-2-[(8-hydroxy-2-oxo-1H-quinolin-5-yl)(caboxy)methyloxyimino]acetamido}-3-(1-quinoliniomethyl)-3-cephem-4-carboxylic acid sodium salt], the “antimicrobial activity, times stronger as compared with ceftazidime” value in series [1] was “more than 32 times”. For the same molecule, the “antimicrobial activity, times stronger than ceftazidime” value in series [2] is “more than 4 times”.

For `Nc1nc(/C(=N/OC(C(=O)O)c2ccc(O)c3[nH]c(=O)ccc23)C(=O)N[C@@H]2C(=O)N3C(C(=O)[O-])=C(C[n+]4ccccc4)CS[C@H]23)cs1` (stereo partly drawn) [Example 4, 7β-{(Z)-2-(2-aminothiazol-4-yl)-2-[(8-hydroxy-2-oxo-1H-quinolin-5-yl)(carboxy)methyloxyimino]acetamido}-3-(1-pyridiniomethyl)-3-cephem-4-carboxylic acid sodium salt], the “antimicrobial activity, times stronger as compared with ceftazidime” value in series [3] was “more than 16 times”. Also, the “antimicrobial activity, times stronger than ceftazidime” value in series [2] is “more than 4 times”.

For `Cc1c(N)ccc[n+]1CC1=C(C(=O)[O-])N2C(=O)[C@@H](NC(=O)/C(=N\OC(C(=O)O)c3ccc(O)c4[nH]c(=O)ccc34)c3csc(N)n3)[C@H]2SC1` (stereo partly drawn) [Example 27, 7β-{(Z)-2-(2-aminothiazol-4-yl)-2-[(8-hydroxy-2-oxo-1H-quinolin-5-yl)(carboxy)methyloxyimino]acetamido}-3-(3 amino-2-methyl-1-pyridiniomethyl)-3-cephem-4-carboxylic acid sodium salt], in series [3], the “antimicrobial activity, times stronger as compared with ceftazidime” value is “more than 16 times”. Besides, the “antibacterial activity (90 % inhibitory concentration), times superior to that of ceftazidime” value in series [4] is on record as “about 16 times”. In addition, the “acute toxicity (mice that died)” value with mice is “none of the five mice”.

The record behind these values is patent EP0544958A1, “Cephalosporin compounds and processes for preparing the same” (TANABE SEIYAKU CO., LTD., priority 1991, dated 1993).
